# Columns and labels:
# A549 cells [1] = test: Mitochondrial membrane potential assay (JC-1, flow cytometry); format: cell-based; details: Homo sapiens, A549, 48 h, read-out: JC-1 dot plot: Viable
# Protocol: A lipophilic and cell-permeable fluorochrome JC-1 (5,5’,6,6’-tetrachloro-1,1’,3,3’-tetraethyl benzimidazolyl carbocyanine iodide), was used to measure mitochondrial membrane potential (Δψm) according to the manufacturer’s instructions (BD MitoScreen Kit). The cells (1×10^6) were seeded in tissue culture plates and were treated with 18, 27, 36, and 45 μg/ml of chalepin for 48 h incubation. The cells were then harvested, washed with PBS twice and incubated with JC-1 dye for 15 mins at 37°C. At the end of the incubation, the cells were washed and resuspended with 500 μl of 1x assay buffer (provided in the kit). The intracellular fluorescence signals of JC-1 in the cells were then measured with Accuri C6 flow cytometer. Approximately 10,000 events were recorded per analysis. In healthy cells, JC-1 accumulates as aggregates in the mitochondria and emits red fluorescence. In cells, which have undergone apoptosis, JC-1 remains in monomeric form in the cytoplasm and emits green fluorescence. The red and green fluorescence were detected at FL-2 and FL-1 channels respectively in the flow cytometer. Ratio of mean fluorescence intensity between the FL1 and FL2 channels were calculated and this is used to determine the changes in the mitochondrial membrane potential. The results were analysed by calculating the ratio of JC-1 dimers to JC-1 monomers. A […] ratio indicated a […] membrane depolarization of mitochondria in cells (BD MitoScreen Flow Cytometry Mitochondrial Membrane Potential Detection Kit Instruction Manual). Cells that was untreated in 0.5 % DMSO acted as the control.
# JC-1 (5,5’,6,6’-tetrachloro-1,1’,3,3’-tetraethyl benzimidazolyl carbocyanine iodide) mitochondrial membrane potential assay kit by Abcam was used to stain the A549 cells to view the mitochondrial membrane potential (Δψm) changes in cells. Prior to the JC-1 staining initiation, 1x dilution buffer were prepared by adding 10 mL 10× dilution buffer to 90 mL deionized water. The solution was mixed gently and throughly. JC-1 stock (1mM) was diluted to 20 μM working JC-1 solution. This was done by adding 200 μl of JC-1 stock solution into 10 mL of 1× dilution buffer. The cells (1×10^6) were seeded in tissue culture plates and were treated with 18, 27, 36, and 45 μg/ml of chalepin for 48 and 72 h incubation. The cells were then harvested, washed with PBS twice and incubated with JC-1 dye for 20 mins at 37 °C. At the end of the incubation, the cells were washed and resuspended with 1000 μl of 1× dilution buffer. The cells were viewed using a fluorescence microscope at an excitation wavelength of Ex475 ± 20nm and emission wavelength of Em530 ± 15 nm and 590 ± 17.5 nm. The images were captured and recorded.
# A549 cells [2] = test: DNA fragmentation by APO-BrdU TUNEL assay; format: cell-based, human
# Protocol: DNA strand breaks in apoptotic cells caused by the activation of endonucleases, were detected by APO-BrdU TUNEL assay kit. After incubation with various concentrations of chalepin at 48 and 72 h, cells were harvested and washed with PBS. Next, the cells were fixed with 1 % (w/v) paraformaldehyde for 15 mins, then washed with PBS, and fixed with 70 % (v/v) ethanol overnight. Ethanol was removed by centrifugation and DNA labeling steps were performed according to the manual provided in the kit. Samples were analyzed by flow cytometer and a minimum of 10,000 events were acquired for each replicate.
smiles,measurement,setting,value
"C=CC(C)(C)c1cc2cc3c(cc2oc1=O)O[C@H](C(C)(C)O)C3 [Chalepin, chalepin]",viability at 18 µg/mL,A549 cells [1],78.3%
same,viability at 27 µg/mL,A549 cells [1],68.2%
same,viability at 36 µg/mL,A549 cells [1],54.2%
same,viability at 45 µg/mL,A549 cells [1],52.9%
same,"DNA fragmentation, R3 (TUNEL positive cells)","A549 cells [2]; A549, 48 h, 45 μg/ml",38.5 ± 0.70%
same,"DNA fragmentation, R3 (TUNEL positive cells)","A549 cells [2]; A549, 72 h, 36 μg/ml",73.50 ± 0.20%
same,"DNA fragmentation, R3 (TUNEL positive cells)","A549 cells [2]; A549, 72 h, 45 μg/ml",66.50 ± 0.29%
